Tests used:
[1] = test system: pentobarbitone-anesthetized rats; assay: Anti-hypertensive effect in pentobarbitone-anesthetized rats; format: in vivo, rat; conditions: for Change in diastolic blood pressure / Change in heart rate: pentobarbitone-anesthetized rats
Method: In this test, rats, anesthetized with a 45 to 60 mg/kg dose (i.p.) of sodium pentabarbitone, receive the test compound by injection by means of an indwelling cannula in the femoral vein. Diastolic blood pressure is measured by an indwelling catheter in the femoral artery. Heart rate is also measured.

[2] = target: T1, K^+ -depolarized taenia preparations from the guinea pig caecum (Cavia porcellus, UniProt O35505); assay: Calcium antagonism in K+-depolarized taenia preparations (displacement of Ca++ concentration-response curves); format: cell-based; conditions: for Kb: calculated, against Ca++, read-out: pA2 (converted)
T1 construct: taenia preparations from the guinea pig caecum; from tissue; host or cells: guinea pig caecum, taenia (smooth muscle)
Excerpt: Pharmacol., 38, 234 (1982). […] Pharmacol., 318, 234 (1982)].

[3] = test system: conscious spontaneously hypertensive rats (stroke prone strain); assay: Anti-hypertensive effect in conscious spontaneously hypertensive rats (stroke prone strain); format: in vivo, rat
Method: In this test, the test compound is injected in an indwelling cannula in the femoral vein and blood pressure is measured by an indwelling catheter in the femoral artery. Heart rate is also measured.

pithed rats = assay: Anti-hypertensive activity in pithed rats (blood pressure elevated by angiotensin II infusion); format: in vivo, rat; conditions: for bradycardia / diastolic blood pressure, elevated by an infusion of angiotensin II: i.v., result in words
[4] = test system: K^+ -depolarized taenia preparations from guinea pig caecum; assay: Inhibition of 45Ca++ uptake in K+-depolarized taenia preparations; format: cell-based; conditions: 0.1 and 1 μM; 20 minutes incubation
Method: In this procedure, strips of taenia are incubated in Ca^++ -free buffer (composition, mM: NaCl, 97; KCl, 40; glucose, 5.5, HEPES buffer, 10; pH 7.0) at 35° C. and gassed with oxygen. The preparations thus prepared are then incubated with the test compound for 20 minutes after which ^45 Ca^++ /Ca^++ is added (1 mM for 10 minutes). Extracellular Ca^++ is displaced with lanthanum (50 mM) at 0°-4° C.

T1 sequence (O35505 whole entry): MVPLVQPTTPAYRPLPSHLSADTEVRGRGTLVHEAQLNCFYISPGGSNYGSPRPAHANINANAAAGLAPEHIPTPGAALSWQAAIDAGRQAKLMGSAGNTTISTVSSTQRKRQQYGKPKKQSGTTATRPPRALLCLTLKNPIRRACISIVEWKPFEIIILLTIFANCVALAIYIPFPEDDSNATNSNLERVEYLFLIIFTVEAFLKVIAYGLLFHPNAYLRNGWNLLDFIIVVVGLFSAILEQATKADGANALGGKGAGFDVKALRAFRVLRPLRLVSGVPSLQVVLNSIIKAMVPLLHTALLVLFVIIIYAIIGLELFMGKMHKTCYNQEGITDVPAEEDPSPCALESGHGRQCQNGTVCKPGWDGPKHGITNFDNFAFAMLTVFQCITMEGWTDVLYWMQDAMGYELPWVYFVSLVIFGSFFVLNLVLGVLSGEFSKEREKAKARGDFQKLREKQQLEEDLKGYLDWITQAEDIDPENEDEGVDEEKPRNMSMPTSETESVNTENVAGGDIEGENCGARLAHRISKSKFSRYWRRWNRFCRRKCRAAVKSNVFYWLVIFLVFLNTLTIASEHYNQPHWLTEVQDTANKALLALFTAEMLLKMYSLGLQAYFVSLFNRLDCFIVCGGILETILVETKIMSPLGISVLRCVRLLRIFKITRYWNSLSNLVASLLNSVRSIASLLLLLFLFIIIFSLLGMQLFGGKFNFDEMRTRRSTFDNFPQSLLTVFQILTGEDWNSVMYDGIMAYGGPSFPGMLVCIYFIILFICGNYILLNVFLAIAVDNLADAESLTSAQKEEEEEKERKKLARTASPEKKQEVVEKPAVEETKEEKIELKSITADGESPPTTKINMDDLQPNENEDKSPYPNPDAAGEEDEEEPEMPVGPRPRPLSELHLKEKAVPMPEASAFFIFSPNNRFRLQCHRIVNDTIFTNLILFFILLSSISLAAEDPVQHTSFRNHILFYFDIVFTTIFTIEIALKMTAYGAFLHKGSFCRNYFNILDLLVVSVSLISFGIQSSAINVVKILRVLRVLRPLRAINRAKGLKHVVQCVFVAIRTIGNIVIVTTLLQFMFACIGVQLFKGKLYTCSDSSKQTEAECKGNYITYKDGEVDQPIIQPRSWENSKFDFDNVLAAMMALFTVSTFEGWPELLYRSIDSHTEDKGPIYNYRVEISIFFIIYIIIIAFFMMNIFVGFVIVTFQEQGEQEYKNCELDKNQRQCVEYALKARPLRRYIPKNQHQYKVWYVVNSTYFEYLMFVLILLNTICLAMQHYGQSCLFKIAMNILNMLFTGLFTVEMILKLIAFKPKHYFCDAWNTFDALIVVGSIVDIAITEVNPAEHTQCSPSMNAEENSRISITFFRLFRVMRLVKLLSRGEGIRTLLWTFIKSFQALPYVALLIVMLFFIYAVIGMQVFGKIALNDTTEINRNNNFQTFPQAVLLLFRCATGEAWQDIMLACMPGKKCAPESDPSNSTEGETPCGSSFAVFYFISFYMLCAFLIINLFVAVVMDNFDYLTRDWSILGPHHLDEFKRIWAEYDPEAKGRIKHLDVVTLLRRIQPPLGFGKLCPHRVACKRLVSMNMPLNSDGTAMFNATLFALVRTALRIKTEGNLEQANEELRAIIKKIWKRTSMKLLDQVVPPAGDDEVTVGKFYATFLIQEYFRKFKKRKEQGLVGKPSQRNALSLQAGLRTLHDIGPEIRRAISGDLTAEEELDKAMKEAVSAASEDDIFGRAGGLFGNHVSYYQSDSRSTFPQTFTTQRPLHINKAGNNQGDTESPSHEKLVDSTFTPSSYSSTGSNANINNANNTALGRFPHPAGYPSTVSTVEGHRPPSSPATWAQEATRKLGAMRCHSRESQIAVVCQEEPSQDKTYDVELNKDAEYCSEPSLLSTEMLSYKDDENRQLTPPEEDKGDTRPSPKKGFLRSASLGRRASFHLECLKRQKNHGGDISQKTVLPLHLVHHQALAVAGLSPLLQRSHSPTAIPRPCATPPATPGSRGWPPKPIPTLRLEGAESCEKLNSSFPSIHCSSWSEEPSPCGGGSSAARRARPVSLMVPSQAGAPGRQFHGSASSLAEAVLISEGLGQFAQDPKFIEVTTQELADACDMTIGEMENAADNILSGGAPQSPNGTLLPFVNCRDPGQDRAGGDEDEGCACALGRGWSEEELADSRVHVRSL

## COC(=O)C1=C(C)NC(C)=C(C(=O)c2ccco2)C1c1ccccc1[N+](=O)[O-] (stereo not drawn) [Compound A, 3-(2-furoyl)-5-methoxycarbonyl-2,6-dimethyl-4-(2-nitrophenyl)-1,4-dihydropyridine]
[1]; anesthetized rats, i.v., result in words
  blood pressure in anesthetized rats: reduced blood pressure in anesthetized rats in a dose-dependent manner
[1]; 10 nmol/kg i.v.
  Change in diastolic blood pressure: 86.0 ± 3.3 % control
  Change in heart rate: 103.5 ± 0.9 % control
[1]; 30 nmol/kg i.v.
  Change in diastolic blood pressure: 80.2 ± 3.2 % control
  Change in heart rate: 106.2 ± 2.0 % control
[1]; 100 nmol/kg i.v.
  Change in diastolic blood pressure: 55.0 ± 2.8 % control
  Change in heart rate: 107.1 ± 3.6 % control
[1]; 300 nmol/kg i.v.
  Change in diastolic blood pressure: 54.6 ± 1.9 % control
  Change in heart rate: 106.7 ± 3.1 % control
[1]; 1000 nmol/kg i.v.
  Change in diastolic blood pressure: 46.7 ± 1.6 % control
  Change in heart rate: 104.0 ± 1.8 % control
[1]; 3000 nmol/kg i.v.
  Change in diastolic blood pressure: 46.6 ± 1.6 % control
  Change in heart rate: 102.2 ± 2.2 % control
[1]; 10000 nmol/kg i.v.
  Change in diastolic blood pressure: 32.4 ± 2.0 % control
  Change in heart rate: 99.9 ± 3.4 % control
[2]
  displacement of concentration-response curves to Ca++: caused a concentration-dependent displacement to the right
  Kb: 1.78 nM
[3]; 100 nmol/kg i.v.
  Fall in mean blood pressure: 4.5 ± 1.5 mm Hg
  Increase in heart rate: 20.0 ± 3.2 beats/min
[3]; 300 nmol/kg i.v.
  Fall in mean blood pressure: 20.5 ± 1.5 mm Hg
  Increase in heart rate: 70.0 ± 4.2 beats/min
[3]; 1000 nmol/kg i.v.
  Fall in mean blood pressure: 42.5 ± 1.8 mm Hg
  Increase in heart rate: 118.0 ± 16.3 beats/min
[3]; 3000 nmol/kg i.v.
  Fall in mean blood pressure: 56.6 ± 1.4 mm Hg
  Increase in heart rate: 136.3 ± 11.1 beats/min
[3]; i.v., result in words
  blood pressure: significantly reduced blood pressure in a dose-dependent manner
  reflex tachycardia: produced reflex tachycardia
Pithed rats; 3 nmol/kg i.v.
  Change in diastolic blood pressure: 82.2 ± 5.3 % control
  Change in heart rate: 98.1 ± 0.9 % control
Pithed rats; 10 nmol/kg i.v.
  Change in diastolic blood pressure: 72.3 ± 4.9 % control
  Change in heart rate: 93.7 ± 1.7 % control
Pithed rats; 30 nmol/kg i.v.
  Change in diastolic blood pressure: 62.4 ± 3.5 % control
  Change in heart rate: 90.9 ± 2.5 % control
Pithed rats; 100 nmol/kg i.v.
  Change in diastolic blood pressure: 52.0 ± 3.8 % control
  Change in heart rate: 81.1 ± 3.3 % control
Pithed rats; 300 nmol/kg i.v.
  Change in diastolic blood pressure: 45.0 ± 1.6 % control
  Change in heart rate: 74.2 ± 3.4 % control
Pithed rats; 1000 nmol/kg i.v.
  Change in diastolic blood pressure: 36.4 ± 1.8 % control
  Change in heart rate: 67.9 ± 3.4 % control
Pithed rats; 3000 nmol/kg i.v.
  Change in diastolic blood pressure: 32.9 ± 1.8 % control
  Change in heart rate: 64.3 ± 3.4 % control
Pithed rats
  bradycardia: dose-dependent bradycardia
  diastolic blood pressure, elevated by an infusion of angiotensin II: significantly reduced
[4]
  uptake of 45Ca++ into the tissue: reduced uptake

## CCOC(=O)C1=C(C)NC(C)=C(C(=O)c2ccco2)C1c1ccccc1[N+](=O)[O-] (stereo not drawn) [Compound B, 3-(2-furoyl)-5-ethoxycarbonyl-2,6-dimethyl-4-(2-nitrophenyl)-1,4-dihydropyridine]
[2]
  displacement of concentration-response curves to Ca++: caused a concentration-dependent displacement to the right
  Kb: 4.57 nM
Pithed rats; 10 nmol/kg i.v.
  Change in diastolic blood pressure: 80.6 ± 2.8 % control
  Change in heart rate: 94.1 ± 0.5 % control
Pithed rats; 30 nmol/kg i.v.
  Change in diastolic blood pressure: 67.9 ± 3.0 % control
  Change in heart rate: 90.4 ± 1.3 % control
Pithed rats; 100 nmol/kg i.v.
  Change in diastolic blood pressure: 47.7 ± 2.4 % control
  Change in heart rate: 85.7 ± 1.5 % control
Pithed rats; 300 nmol/kg i.v.
  Change in diastolic blood pressure: 45.6 ± 3.9 % control
  Change in heart rate: 84.1 ± 3.4 % control
Pithed rats; 1000 nmol/kg i.v.
  Change in diastolic blood pressure: 39.1 ± 2.1 % control
  Change in heart rate: 76.6 ± 3.4 % control
Pithed rats; 3000 nmol/kg i.v.
  Change in diastolic blood pressure: 37.1 ± 0.8 % control
  Change in heart rate: 72.2 ± 3.4 % control
Pithed rats
  bradycardia: dose-dependent bradycardia
  diastolic blood pressure, elevated by an infusion of angiotensin II: significantly reduced

Reference: US4529733A, “Antihypertensive 3-furoyl-1,4-dihydropyridines” (Merrell Dow Pharmaceuticals Inc., priority 1983, dated 1985)
